# Data as given in patent US8212038B2, “Methods and compositions for controlling ectoparasites” (HatchTech Pty Ltd., priority 2003, dated 2012).
# Assays:
# [1] = tested on: lice eggs; test: Time course in vitro lice egg hatching assay; format: in vivo, Pediculus humanus humanus
# [2] = tested on: Plutella xylostella eggs (Waite strain); test: Egg hatch of Plutella xylostella after dipping in inhibitor; conditions: for % Inhibition of egg hatch relative to controls / Number hatched / Number unhatched: Example 13
# Protocol: The egg masses were then placed in a humid box at 25 degrees until egg hatch. Control eggs were exposed to absolute methanol as described above. At day 6 post laying the eggs were assessed from the different treatments and the percentage of egg hatch determined relative to the control as shown in Table 9.
# Batches of Plutella eggs that were laid on either fine cloth or parafilm were dipped in a specific inhibitor solution for between 2-10 seconds, the excess solution was drained by blotting with dry tissue paper. The egg masses were then placed in a humid box at 25 degrees until egg hatch. Control eggs were exposed to absolute methanol as described above or not treated.
# The egg masses were then placed in a humid box at 25 degrees until egg hatch. Control eggs were exposed to absolute ethanol as described above. On day 6 post laying the eggs were assessed from the different treatments and the percentage of egg hatch determined relative to the control.
# [3] = tested on: Helicoverpa armigera eggs (Tatura×Toowoomba strains); test: Egg hatch of Helicoverpa armigera after exposure to inhibitor; conditions: for % Inhibition of egg hatch relative to the control / Number hatched / Number unhatched: Example 15, day 6 post laying
# Protocol: Several hundred Helicoverpa armigera eggs (Tatura×Toowoomba strains) were collected, that had been laid on fine mesh cloth over a 24 hour period.
# Batches of Helicoverpa eggs were exposed to a specific inhibitor solution for between 2-10 seconds the excess solution drained by blotting with dry tissue paper. The egg masses were then placed in a humid box at 25 degrees until egg hatch. Control eggs were exposed to absolute methanol as described above.
# [4] = tested on: B. ovis eggs; test: Egg hatching in Bovicola ovis; format: in vivo; conditions: 10 mM
# Protocol: B. ovis eggs were collected from the wool of sheep that were infested with this parasite. The eggs were collected using forceps and with the aid of a dissecting microscope and placed in 24 well tissue culture plates in duplicate lots of 10 eggs per replicate. The eggs were then exposed to either methanol alone (control) or the test compounds for either 10 minutes or 1 minute before being removed from the wells and placed into individual glass vials containing a diet at the base of the tube. The tubes were placed in plastic containers containing a salt solution (to keep humidity constant at 68%) and the containers maintained at a temperature 32° C. The eggs were monitored for hatching over the following 12 days and % hatch inhibition determined in comparison to the controls.
# [5] = tested on: Plutella xylostella eggs (Waite strain); test: Reversal of ovicidal effect by FeSO4 on Plutella xylostella eggs; format: in vivo
# Protocol: (§1) Within 24 hours of collection the following experimental design was chosen. Batches of eggs were exposed to 10 mM 6,69-dimethyl-2,29-dipyridyl for 2 seconds while additional batches of eggs were exposed to the solvent only (Methanol) for 2 seconds. All batches of eggs were allowed to air dry for 20 minutes at room temperature. The eggs were then given a 2 second exposure to FeSO4 at either 10, 5 or 1 mM, air dried and put in the incubator at 24° C. and allowed to hatch over the next 6 days. In addition, a positive control of 10 mM 6,69-dimethyl-2,29-dipyridyl was set up in which eggs were exposed to this compound for 2 seconds, air dried and placed in the incubator.
# as §1, with “10 mM 5,59-dimethyl-2,29-dipyridyl for 2” for “10 mM 6,69-dimethyl-2,29-dipyridyl for 2”, “FeSO4 at 10, 5” for “FeSO4 at either 10, 5”, “put in an incubator at” for “put in the incubator at”, “of 10 mM, 5,59-dimethyl-2,29-dipyridyl was set” for “of 10 mM 6,69-dimethyl-2,29-dipyridyl was set”
# [6] = 10 mM followed by 2 second exposure to 1 mM FeSO4
# [7] = 10 mM followed by 2 second exposure to 5 mM FeSO4
# [8] = 10 mM followed by 2 second exposure to 10 mM FeSO4
# [9] = 10 mM followed by 2 second exposure to MEOH
# [10] = 10 mM, 2 seconds, (+ve) control, no second exposure
SMILES,inhibition of egg hatching of Helicoverpa armigera (in words) ([3]; 10 mM),% Inhibition of egg hatch relative to the control ([3]; 10 mM),Number hatched ([3]; 10 mM),Number unhatched ([3]; 10 mM),inhibition of egg hatching in Plutella xylostella (in words) ([2]; 10 and 1 mM),"% Inhibition of egg hatch relative to controls ([2]; eggs laid on cloth, 1 mM)","Number hatched ([2]; eggs laid on cloth, 1 mM)","Number unhatched ([2]; eggs laid on cloth, 1 mM)","% Inhibition of egg hatch relative to controls ([2]; eggs laid on cloth, 10 mM)","Number hatched ([2]; eggs laid on cloth, 10 mM)","Number unhatched ([2]; eggs laid on cloth, 10 mM)","% Inhibition of egg hatch relative to controls ([2]; eggs laid on parafilm, 1 mM)","Number hatched ([2]; eggs laid on parafilm, 1 mM)","% Inhibition of egg hatch relative to controls ([2]; eggs laid on parafilm, 10 mM)","Number hatched ([2]; eggs laid on parafilm, 10 mM)",further results
"c1ccc(-c2ccccn2)nc1 [2,29-dipyridyl]",–,–,–,–,–,–,–,–,–,–,–,–,–,–,–,"inhibition of lice egg hatching (in words) ([1]; in vivo): completely inhibited; Ph (number of eggs partly hatched) ([1]; per replicate, […], concentration not given): 0"
c1ccc(-c2ccc3ccccc3n2)nc1 [2-(2-pyridinyl)quinoline],–,–,–,–,–,–,–,–,–,–,–,–,–,–,–,inhibition of egg hatching in Plutella xylostella (in words) ([2]; 10 mM): able to inhibit egg hatching
"Cc1ccnc(-c2cc(C)ccn2)c1 [4,4′-dimethyl-2,2′-dipyridyl]",significant inhibition of egg hatching,84%,8,43,significantly inhibit egg hatching,100%,0,30,100%,0,36,91%,10,100%,0,inhibition of egg hatching of Helicoverpa armigera (in words) ([3]; 1 mM): significant inhibition of egg hatching; % Inhibition of egg hatch relative to the control ([3]; 1 mM): 66%; Number hatched ([3]; 1 mM): 23; Number unhatched ([3]; 1 mM): 29
"Cc1ccc(-c2ccc(C)cn2)nc1 [5,5′-dimethyl-2,2′-dipyridyl]",significant inhibition of egg hatching,100%,0,42,significantly inhibit egg hatching,78%,5,22,100%,0,21,88%,18,100%,0,"inhibition of egg hatching (in words) ([4]; 10 or 1 minute exposure): completely inhibited; % Inhibition ([4]; 1 minute exposure): 100%; % Inhibition ([4]; 10 minute exposure): 100%; % Inhibition [5, 6]: 0%; Number hatched [5, 6]: 39; Number unhatched [5, 6]: 0; % Inhibition [5, 7]: 0%; Number hatched [5, 7]: 25; Number unhatched [5, 7]: 0; % Inhibition [5, 8]: 8%; Number hatched [5, 8]: 23; Number unhatched [5, 8]: 2; % Inhibition [5, 9]: 55%; Number hatched [5, 9]: 16; Number unhatched [5, 9]: 19; effect of added Fe (FeSO4) on the ovicidal effect (in words) ([5]; 10 mM inhibitor, then FeSO4 10, 5 or 1 mM): able to reverse the effects; % Inhibition [5, 10]: 100%; Number hatched [5, 10]: 0; Number unhatched [5, 10]: 38"
